Results as given in article PMC3477601 (Bioorganic & medicinal chemistry letters, 2012).
Where “and” joins values, the source holds several entries; their conditions need not be identical. Identical values can stand only once. Like-named read-outs stand apart in the source and are kept apart here.

Legend:
PPAR-α [1] = target: T1, PPAR-α (Mus musculus, UniProt P23204); conditions: post-PET
PPAR-α [2] = target: T1, PPAR-α; conditions: dynamic PET 0–60 min post iv injection
[3] = PPAR-α overexpressing transgenic mice

T1 sequence (P23204 whole entry): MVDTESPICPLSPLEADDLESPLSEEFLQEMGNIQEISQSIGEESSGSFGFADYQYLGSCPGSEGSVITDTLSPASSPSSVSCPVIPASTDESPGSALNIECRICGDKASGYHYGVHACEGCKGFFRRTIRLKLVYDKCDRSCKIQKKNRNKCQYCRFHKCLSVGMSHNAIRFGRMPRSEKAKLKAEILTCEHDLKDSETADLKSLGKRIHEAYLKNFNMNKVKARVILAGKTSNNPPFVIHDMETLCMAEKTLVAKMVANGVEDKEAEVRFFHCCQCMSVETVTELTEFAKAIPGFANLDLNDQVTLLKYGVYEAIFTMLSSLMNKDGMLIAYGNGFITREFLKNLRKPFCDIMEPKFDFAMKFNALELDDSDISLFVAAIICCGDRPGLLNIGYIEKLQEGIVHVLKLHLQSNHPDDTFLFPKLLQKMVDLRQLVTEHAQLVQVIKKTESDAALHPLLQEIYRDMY

For `CC(C)(Sc1ccc(CCN(CCCCC2CCCCC2)C(=O)Nc2ccc(O[11CH3])cc2)cc1)C(=O)O` [[^11C]KSM-01], the Cardiac tissue uptake (PPAR-α [1]; [3]) was 1.09 ± 0.246 %ID/g, the Blood uptake (PPAR-α [1]; TG (male MHC PPAR-α overexpressing transgenic mice)) was 0.42±0.14 %ID/g and the Kidney uptake (PPAR-α [1]; TG) was 2.58±0.56 %ID/g. It also gave a Liver uptake (PPAR-α [1]; TG) of 55.031 ± 4.926 %ID/g, a Lung uptake (PPAR-α [1]; TG) of 2.65±0.34 %ID/g and a Muscle uptake (PPAR-α [1]; TG) of 0.36±0.15 %ID/g. For the same molecule, the Spleen uptake (PPAR-α [1]; TG) was 1.33±0.29 %ID/g, the Blood uptake (PPAR-α [1]; WT (wild type mice)) was 0.42±0.10 %ID/g and the Liver uptake (PPAR-α [1]; WT) was 60.699 ± 0.774 %ID/g and 60.69±0.77 %ID/g. For the same molecule, the Lung uptake (PPAR-α [1]; WT) was 2.11±0.31 %ID/g, the Muscle uptake (PPAR-α [1]; WT) was 0.35±0.18 %ID/g and the Spleen uptake (PPAR-α [1]; WT) was 1.55±0.14 %ID/g. For the same molecule, the Cardiac tissue uptake (PPAR-α [1]; wild type littermates) was 0.479 ± 0.007 %ID/g, the “Standard uptake value (SUV)” value (PPAR-α [2]; [3]) was 0.68±0.007 and the “Standard uptake value (SUV)” value (PPAR-α [2]; control (wild-type) mice) was 0.37±0.09.
